# PubChem BioAssay AID1259407 (Chemical Carcinogenesis Research Information System (CCRIS), 2018)
# The source made the active and inactive calls. How the calls were made is not given here.
# Tested on: CCRIS mutagenicity, Ames/micronucleus/aberration tests
# Assay: CCRIS mutagenicity studies
# [1] = Test System: AMES SALMONELLA TYPHIMURIUM, Strain/Indicator: TA102, Metabolic Activation: NONE, Method: PREINCUBATION
# [2] = Test System: AMES SALMONELLA TYPHIMURIUM, Strain/Indicator: TA98(1,8-DNP6), Metabolic Activation: NONE, Method: STANDARD PLATE
# [3] = Test System: AMES SALMONELLA TYPHIMURIUM, Strain/Indicator: TA98, Metabolic Activation: NONE, Method: STANDARD PLATE
# [4] = Test System: AMES SALMONELLA TYPHIMURIUM, Strain/Indicator: TA100, Metabolic Activation: NONE, Method: STANDARD PLATE
# [5] = Test System: AMES SALMONELLA TYPHIMURIUM, Strain/Indicator: TA98, Metabolic Activation: RAT, LIVER, S-9, AROCLOR 1254, Method: STANDARD PLATE
# [6] = Test System: AMES SALMONELLA TYPHIMURIUM, Strain/Indicator: TA100, Metabolic Activation: RAT, LIVER, S-9, AROCLOR 1254, Method: STANDARD PLATE
# [7] = Test System: AMES SALMONELLA TYPHIMURIUM, Strain/Indicator: TA98, Metabolic Activation: NONE, Method: PREINCUBATION
# [8] = Test System: AMES SALMONELLA TYPHIMURIUM, Strain/Indicator: TA98, Metabolic Activation: RAT, LIVER, S-9, AROCLOR 1254 (10%), Method: PREINCUBATION
# [9] = Test System: AMES SALMONELLA TYPHIMURIUM, Strain/Indicator: TA100, Metabolic Activation: NONE, Method: PREINCUBATION
# [10] = Test System: AMES SALMONELLA TYPHIMURIUM, Strain/Indicator: TA100, Metabolic Activation: RAT, LIVER, S-9, AROCLOR 1254 (10%), Method: PREINCUBATION
# [11] = Test System: AMES SALMONELLA TYPHIMURIUM, Strain/Indicator: TA1537, Metabolic Activation: NONE, Method: PREINCUBATION
compound,measurement,setting,value
Nc1nc2ncc(CNc3ccc(C(=O)N[C@@H](CCC(=O)O)C(=O)O)cc3)nc2c(=O)[nH]1,mutagenic call,"Test System: AMES SALMONELLA TYPHIMURIUM, Strain/Indicator: TA97A, Metabolic Activation: NONE, Method: PREINCUBATION",inactive; negative
same,mutagenic call,"Test System: AMES SALMONELLA TYPHIMURIUM, Strain/Indicator: TA97A, Metabolic Activation: RAT, LIVER, S-9, AROCLOR 1254, Method: PREINCUBATION",inactive; negative
same,mutagenic call,[1],inactive; negative
same,mutagenic call,"Test System: AMES SALMONELLA TYPHIMURIUM, Strain/Indicator: TA102, Metabolic Activation: RAT, LIVER, S-9, AROCLOR 1254, Method: PREINCUBATION",inactive; negative
O=C(O)c1c(Cl)c(Cl)c(Cl)c(Cl)c1-c1c2cc(I)c(=O)c(I)c-2oc2c(I)c(O)c(I)cc12,mutagenic call,"End Point: IN VIVO MICRONUCLEUS, Test System: BONE MARROW POLYCHROMATIC ERYTHROCYTES, Species: MOUSE, Strain/Sex: DDY/MALE, Route: IP",inactive; negative
Nc1ccc(-c2ccc(N)cc2[N+](=O)[O-])cc1,mutagenic call,[2],active; positive
same,mutagenic call,"Test System: AMES SALMONELLA TYPHIMURIUM, Strain/Indicator: TA98(1,8-DNP6), Metabolic Activation: S-9, Method: STANDARD PLATE",active; positive
same,mutagenic call,[3],active; positive
same,mutagenic call,"Test System: AMES SALMONELLA TYPHIMURIUM, Strain/Indicator: TA98, Metabolic Activation: S-9, Method: STANDARD PLATE",active; positive
same,mutagenic call,[4],inactive; negative
same,mutagenic call,"Test System: AMES SALMONELLA TYPHIMURIUM, Strain/Indicator: TA100, Metabolic Activation: S-9, Method: STANDARD PLATE",active; positive
O=[N+]([O-])c1ccc2ccc3c4c(cc5ccc1c2c53)CCC=C4,mutagenic call,[2],active; positive
same,mutagenic call,"Test System: AMES SALMONELLA TYPHIMURIUM, Strain/Indicator: TA98(1,8-DNP6), Metabolic Activation: RAT, LIVER, S-9, AROCLOR 1254, Method: STANDARD PLATE",active; positive
same,mutagenic call,"Test System: AMES SALMONELLA TYPHIMURIUM, Strain/Indicator: TA98(NR), Metabolic Activation: NONE, Method: STANDARD PLATE",active; positive
same,mutagenic call,"Test System: AMES SALMONELLA TYPHIMURIUM, Strain/Indicator: TA98(NR), Metabolic Activation: RAT, LIVER, S-9, AROCLOR 1254, Method: STANDARD PLATE",active; positive
same,mutagenic call,[3],active; positive
same,mutagenic call,[5],active; positive
same,mutagenic call,[4],inactive; negative
same,mutagenic call,[6],active; positive
NC(=O)[C@@H]1CCCN1C(=O)[C@H](Cc1cnc[nH]1)NC(=O)[C@@H]1CCC(=O)N1,mutagenic call,[3],inactive; negative
same,mutagenic call,[5],inactive; negative
same,mutagenic call,[4],inactive; negative
same,mutagenic call,[6],inactive; negative
same,mutagenic call,"Test System: AMES SALMONELLA TYPHIMURIUM, Strain/Indicator: TA1535, Metabolic Activation: NONE, Method: STANDARD PLATE",inactive; negative
same,mutagenic call,"Test System: AMES SALMONELLA TYPHIMURIUM, Strain/Indicator: TA1535, Metabolic Activation: RAT, LIVER, S-9, AROCLOR 1254, Method: STANDARD PLATE",inactive; negative
same,mutagenic call,"Test System: AMES SALMONELLA TYPHIMURIUM, Strain/Indicator: TA1537, Metabolic Activation: NONE, Method: STANDARD PLATE",inactive; negative
same,mutagenic call,"Test System: AMES SALMONELLA TYPHIMURIUM, Strain/Indicator: TA1537, Metabolic Activation: RAT, LIVER, S-9, AROCLOR 1254, Method: STANDARD PLATE",inactive; negative
CC(=O)N(O)c1ccc(Br)cc1,mutagenic call,[3],inactive; negative
same,mutagenic call,[5],inactive; negative
same,mutagenic call,[4],inactive; negative
same,mutagenic call,[6],inactive; negative
O=C1c2ccccc2C(=O)c2c(O)cccc21,mutagenic call,[7],inactive; negative
same,mutagenic call,[8],inactive; negative
same,mutagenic call,"Test System: AMES SALMONELLA TYPHIMURIUM, Strain/Indicator: TA98, Metabolic Activation: RAT, LIVER, S-9, AROCLOR 1254, Method: PREINCUBATION",inactive; negative
same,mutagenic call,[9],inactive; negative
same,mutagenic call,[10],inactive; negative
same,mutagenic call,"Test System: AMES SALMONELLA TYPHIMURIUM, Strain/Indicator: TA100, Metabolic Activation: RAT, LIVER, S-9, AROCLOR 1254, Method: PREINCUBATION",inactive; negative
same,mutagenic call,[1],inactive; negative
same,mutagenic call,"Test System: AMES SALMONELLA TYPHIMURIUM, Strain/Indicator: TA102, Metabolic Activation: RAT, LIVER, S-9, AROCLOR 1254 (10%), Method: PREINCUBATION",inactive; negative
same,mutagenic call,[11],active; positive
same,mutagenic call,"Test System: AMES SALMONELLA TYPHIMURIUM, Strain/Indicator: TA1537, Metabolic Activation: RAT, LIVER, S-9, AROCLOR 1254, Method: PREINCUBATION",active; positive
same,mutagenic call,"Test System: UDS RODENT HEPATOCYTES, Strain/Indicator: THY INCORP, Metabolic Activation: NONE",active; positive
CCOC(=O)NO,mutagenic call,"Test System: AMES SALMONELLA TYPHIMURIUM, Strain/Indicator: TA98, Metabolic Activation: RAT, LIVER, S-9, KC500 OR PHENOBARBITAL, Method: LIQUID SUSPENSION",active; positive
same,mutagenic call,"Test System: E. COLI, Strain/Indicator: WP2 UVRA, Metabolic Activation: NONE, Method: FLUCTUATION TEST",active; positive
C=CC1=C(C)C(/C=c2/[nH]/c(=C\c3[nH]c(/C=C4\NC(=O)C(C)=C4C=C)c(C)c3CCC(=O)O)c(CCC(=O)O)c2C)=NC1=O,mutagenic call,"Test System: Ames Salmonella typhimurium, Strain/Indicator: TA98, Metabolic Activation: Liver, S-9, Method: Preincubation",inactive; negative
same,mutagenic call,"Test System: Ames Salmonella typhimurium, Strain/Indicator: TA100, Metabolic Activation: Liver, S-9, Method: Preincubation",inactive; negative
same,mutagenic call,"Test System: Ames Salmonella typhimurium, Strain/Indicator: TA100, Metabolic Activation: None, Method: Preincubation",inactive; negative
same,mutagenic call,"Test System: Ames Salmonella typhimurium, Strain/Indicator: TA102, Metabolic Activation: Liver, S-9, Method: Preincubation",inactive; negative
same,mutagenic call,"Test System: Ames Salmonella typhimurium, Strain/Indicator: TA102, Metabolic Activation: None, Method: Preincubation",inactive; negative
CC(=O)NS(=O)(=O)c1ccc(N)cc1,mutagenic call,"End Point: IN VITRO CHROMOSOMAL ABERRATIONS, Test System: CHINESE HAMSTER OVARY CELLS, Metabolic Activation: NONE",inactive; negative
same,mutagenic call,"End Point: IN VITRO CHROMOSOMAL ABERRATIONS, Test System: CHINESE HAMSTER OVARY CELLS, Metabolic Activation: RAT, LIVER, S-9, AROCLOR 1254",inactive; negative
same,mutagenic call,"Test System: AMES SALMONELLA TYPHIMURIUM, Strain/Indicator: TA98, Metabolic Activation: HAMSTER, LIVER, S-9, AROCLOR 1254 (10%), Method: PREINCUBATION",inactive; negative
same,mutagenic call,[7],inactive; negative
same,mutagenic call,[8],inactive; negative
same,mutagenic call,"Test System: AMES SALMONELLA TYPHIMURIUM, Strain/Indicator: TA100, Metabolic Activation: HAMSTER, LIVER, S-9, AROCLOR 1254 (10%), Method: PREINCUBATION",inactive; negative
same,mutagenic call,[9],inactive; negative
same,mutagenic call,[10],inactive; negative
same,mutagenic call,"Test System: AMES SALMONELLA TYPHIMURIUM, Strain/Indicator: TA1535, Metabolic Activation: HAMSTER, LIVER, S-9, AROCLOR 1254 (10%), Method: PREINCUBATION",inactive; negative
same,mutagenic call,"Test System: AMES SALMONELLA TYPHIMURIUM, Strain/Indicator: TA1535, Metabolic Activation: NONE, Method: PREINCUBATION",inactive; negative
same,mutagenic call,"Test System: AMES SALMONELLA TYPHIMURIUM, Strain/Indicator: TA1535, Metabolic Activation: RAT, LIVER, S-9, AROCLOR 1254 (10%), Method: PREINCUBATION",inactive; negative
same,mutagenic call,"Test System: AMES SALMONELLA TYPHIMURIUM, Strain/Indicator: TA1537, Metabolic Activation: HAMSTER, LIVER, S-9, AROCLOR 1254 (10%), Method: PREINCUBATION",inactive; negative
same,mutagenic call,[11],inactive; negative
same,mutagenic call,"Test System: AMES SALMONELLA TYPHIMURIUM, Strain/Indicator: TA1537, Metabolic Activation: RAT, LIVER, S-9, AROCLOR 1254 (10%), Method: PREINCUBATION",inactive; negative
O=C(OCCBr)[C@@H](O)[C@H](O)C(=O)OCCBr,mutagenic call,[4],active; positive
same,mutagenic call,[6],active; positive
CCn1nc(C(=O)O)c(=O)c2cc3c(cc21)OCO3,mutagenic call,"Test System: AMES SALMONELLA TYPHIMURIUM, Strain/Indicator: TA102, Metabolic Activation: NONE, Method: STANDARD PLATE",active; positive
